Tests used:
[1] = target: human FP receptor (Homo sapiens, UniProt P43088); assay: Ca2+ signal in CRL 1497 cells; format: cell-based; set-up: endogenous in cells; host or cells: CRL 1497 human dermal fibroblasts; Δ[Ca^2+]i mean χ ± SEM: unit not given here; conditions: CRL 1497 cells, n = 4
Description: (§1) Human CRL 1497 cells were plated in culture flasks and fed Dulbecco's modified Eagle's medium (DMEM) containing 10% fetal calf serum, 2 mM 1-glutamine, and 0.05 mg/ml gentacin (all purchased from Gibco, Grand Island, N.Y.). Cell cultures were maintained in a humidified atmosphere of 95% air, 5% CO2 and grown to confluency. Cells were removed from the culture flasks by approximately 1 min treatment with trypsin 0.05%/0.53 mM EDTA in Hanks Balanced Salt Solution (HBSS, Gibco, Grand Island, N.Y.) at 37° C. Proteolytic activity was arrested by adding 5 ml of 10% fetal bovine serum in DMEM. The cells were consecutively washed in Hank's BSS and medium containing 140 mM NaCl, […], 1 mM MgCl2, 1.5 mM CaCl2, 10 mM HEPES: TRIS, 5 mM glucose, 5 mM Na pyruvate, 0.1% bovine serum albumin at pH 7.4: Centrifugation for the washes was performed for 15 minutes at 200 g at room temperature. Cells were counted, resuspended in the above medium and incubated with 2×10^−6 M Fura 2/acetoxymethyl ester in a shaking water bath for 30 minutes at 37° C. The cells were subsequently washed in medium as above and resuspended at a concentration of 2×10^6 cells ml^−1. Aliquots of 0.5 ml cell suspension were then added to autocap microtubes to provide 10^6 cells per experimental determination of intracellular free Ca^2+ concentration ([Ca^2+]i).
(§2) Fluorescence was measured in a Perkin-Elmer LS-5 fluorescence spectrophotometer at excitation and emission wavelengths of 340 and 492 nm, respectively, with both slits at 10 nm. For each experimental determination 10^6 cells were washed (200×g for 5 min) and suspended in a 2 ml cuvette with buffer containing 120 mM NaCl, 6 mM KCl, 1 mM MgSO4, 1.5 mM CaCl2, 20 mM HEPES, 1 mg ml^−1 glucose and 1 mg ml^−1 Na pyruvate. Stirring was achieved by an overhead-mounted, paddle stirrer with the temperature maintained at 37° C. The cells were lysed with digitonin (10 μl of 100 mg ml^−1 DMSO) to obtain fmax. EGTA (100 mM) and sufficient 10N NaOH to adjust the pH to 8.5 were then successively added to obtain fmin.

[2] = target: recombinant feline FP receptor (Felis catus, UniProt A0ABI7XJ69); assay: Ca2+ signal in HEK-293 cells stably transfected with recombinant feline FP receptor; format: cell-based, cat; conditions: HEK-293 cells, recombinant feline FP receptor; read-out: E.C.50, Ca2+ signal
Description: as §1, §2
HEK-293 cells were grown in DMEM with 10% fetal bovine serum (FBS), 250 μg ml^−1 G418 (Life Technologies) and 200 μg ml^−1 gentamicin or penicillin/streptomycin. […] For transfection, the cells were grown to 50-60% confluency on 10 cm plates. The plasmid pCEP4 incorporating cDNA inserts for the human FP receptor (20 μg) was added to 500 μl of 250 mM CaCl2. HEPES buffered saline×2 (2×HBSS, 280 mM NaCl, 20 mM HEPES acid, 1.5 mM Na2 HPO4, pH 7.05-7.12) was then added dropwise to a […], with continuous vortexing at room temperature. After 30 min, 9 ml DMEM were added to the mixture. The DNA/DMEM/calcium phosphate mixture was then added to the cells, which had been previously rinsed with 10 ml phosphate buffered saline (PBS). The cells were then incubated for 5 h. at 37° C. in humidified 95% air/5% CO2. The calcium phosphate solution was then removed and the cells were treated with 10% glycerol in DMEM for 2 min. The glycerol solution was then replaced by DMEM with 10% fetal bovine serum (FBS). The cells were incubated overnight and the medium was replaced by DMEM/10% FBS containing 250 μg ml^−1 G418 and penicillin/streptomycin. The following day hygromycin B was added to a final concentration of 200 μg ml^−1.
Ten days after transfection, hygromycin B resistant clones were individually selected and transferred to a separate well on a 24 well plate. […]

[3] = tested on: rabbit jugular vein segment; assay: Vasorelaxation of histamine precontracted rabbit jugular vein segment
Description: Smooth muscle tension of isolated tissues was measured isometrically with force displacement transducers (Grass FT-03) and recorded on Grass Polygraphs (Models 7G and 79E). The organ baths contained Krebs solution maintained at 37° C. and gassed with 95% 02/5% CO2 to give a pH of 7.4. The Krebs solution had the following composition (mM): NaCl, 118.0; KCl, 4.7; KH2PO4, 1.2; CaCl2, 1.9; MgSO4, 1.18; NaHCO3, 25.0; glucose, 11.7; indomethacin, 0.001.
New Zealand albino rabbit of either sex, weighing 2-4 kg, were injected with 1000 U heparin into the marginal ear vein and then sacrificed by CO2 gas. The external jugular veins were cleared of fat and adherent connective tissue and removed. The veins were transected and each ring of 3-4 mm length was suspended between two metal hooks in a jacketed organ bath. The tissues were equilibrated for 1 hr under 0.75 g tension, which was readjusted as the tissues relaxed. Single doses of histamine, 10^−5 M then 2-3×10^−6 M, with washing after each dose, were given to contract the tissue and establish responsiveness. The TP-receptor antagonist SQ29548, (Ogletree et al. (1985) J. Pharmacol. Exp. Ther. 234 435-441) at (10^−6 M), was applied for 5 min and then histamine 2-3×10^−6 M was added to elicit the contractile response. After 30 min of pretreatment with the histamine, the relaxant response was tested by adding cumulative doses of the test compounds with 10^−8 M to 10^−7 M PGE2 at the end of each dose-response curve as a reference. A recovery period of 30-50 min was allowed after wash-out of the tissues. Relaxant activity was calculated as % of the control tone elicited by histamine.

[4] = tested on: intraocular pressure; conditions: prior art research of the assignee; cited from earlier work

Sequence of human FP receptor (P43088 whole entry): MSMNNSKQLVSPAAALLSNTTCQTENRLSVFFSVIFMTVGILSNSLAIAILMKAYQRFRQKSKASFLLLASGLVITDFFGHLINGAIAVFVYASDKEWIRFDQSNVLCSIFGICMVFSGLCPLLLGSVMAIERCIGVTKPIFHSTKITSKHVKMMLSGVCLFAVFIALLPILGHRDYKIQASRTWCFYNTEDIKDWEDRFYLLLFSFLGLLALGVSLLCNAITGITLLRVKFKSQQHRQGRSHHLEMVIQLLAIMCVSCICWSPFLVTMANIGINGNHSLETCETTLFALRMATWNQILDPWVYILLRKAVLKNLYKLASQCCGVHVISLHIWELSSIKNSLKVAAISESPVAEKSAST
Sequence of recombinant feline FP receptor (A0ABI7XJ69 entry or part of it): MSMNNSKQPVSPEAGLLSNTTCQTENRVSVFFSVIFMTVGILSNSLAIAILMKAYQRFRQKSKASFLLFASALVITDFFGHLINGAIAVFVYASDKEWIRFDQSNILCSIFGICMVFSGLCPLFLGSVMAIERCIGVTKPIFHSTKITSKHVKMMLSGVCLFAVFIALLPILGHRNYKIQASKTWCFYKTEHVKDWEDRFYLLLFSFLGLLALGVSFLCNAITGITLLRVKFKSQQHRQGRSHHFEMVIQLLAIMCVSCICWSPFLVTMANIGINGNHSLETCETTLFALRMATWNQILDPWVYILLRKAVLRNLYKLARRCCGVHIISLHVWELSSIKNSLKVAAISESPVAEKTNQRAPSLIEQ

| Δ[Ca^2+]i mean χ ± SEM ([1]; 10^−5 M) | Δ[Ca^2+]i mean χ ± SEM ([1]; 10^−6 M) | Δ[Ca^2+]i mean χ ± SEM ([1]; 10^−7 M) | Δ[Ca^2+]i mean χ ± SEM ([1]; 10^−8 M) | Δ[Ca^2+]i mean χ ± SEM ([1]; 10^−9 M) | EC50 [2] | EC50 ([3]; Oryctolagus cuniculus, histamine precontracted, read-out: E.C.50, vasorelaxation of the precontracted rabbit jugular vein segment) | SMILES | endothelium dependent vasorelaxation ([3]; histamine precontracted rabbit jugular vein segment) | intraocular hypotensive activity [4] |
| --- | --- | --- | --- | --- | --- | --- | --- | --- | --- |
| 136.7 ± 11.2 | 127.4 ± 7.6 | 124.1 ± 6.5 | 47.7 ± 9.4 | 5.6 ± 2.4 | 14 nM | 5.3 nM | CCCCC[C@H](O)/C=C/[C@@H]1[C@@H](C/C=C\CCCC(=O)O)[C@@H](O)C[C@H]1O [PGF2α, reference compound] | marked vasorelaxation | – |
| – | – | – | – | – | – | – | CCNC(=O)CCC/C=C\C[C@@H]1[C@@H](/C=C/[C@@H](O)CCc2ccccc2)[C@H](O)C[C@@H]1O [prior art compound no. 1] | – | strong intraocular hypotensive activity |
| – | – | – | – | – | – | – | CCCCCC(/C=C/[C@H]1C(O)CC(O)[C@@H]1C/C=C\CCCC(N)=O)OC (stereo partly shown) [prior art compound no. 2] | – | strong intraocular hypotensive activity |

Source: patent US6395787B1, “Ocular hypotensive lipids” (Allergan Sales, Inc., priority 2000, dated 2002)
